{
  "source": "the Deep4Chem optical property database",
  "test": "photoluminescence quantum yield (fraction); solvent given as SMILES",
  "key": {"[1]": {"settings": "in CCCCC(CC)n1c2ccc(-n3c4ccccc4c4ccccc43)cc2c2cc(-n3c4ccccc4c4ccccc43)ccc21"}, "[2]": {"settings": "in c1cc(-n2c3ccccc3c3ccccc32)cc(-n2c3ccccc3c3ccccc32)c1"}},
  "data": [
    {"smiles": "O=S(=O)(c1cccc(-n2c3ccccc3c3ccccc32)c1)c1cccc(-n2c3ccccc3c3ccccc32)c1", "values": [
      {"measurement": "photoluminescence quantum yield", "setting": "[1]", "value": 0.109},
      {"measurement": "photoluminescence quantum yield", "setting": "[2]", "value": 0.218}
    ]},
    {"smiles": "Cc1ccccc1C1=C2C=c3c(oc4ccc(C(C)(C)C)cc34)=[N+]2[B-](F)(F)n2c1cc1c3cc(C(C)(C)C)ccc3oc12", "values": [
      {"measurement": "photoluminescence quantum yield", "setting": "in C1CCCCC1", "value": 0.89},
      {"measurement": "photoluminescence quantum yield", "setting": "in CCOC(C)=O", "value": 0.93},
      {"measurement": "photoluminescence quantum yield", "setting": "in CO", "value": 0.86}
    ]},
    {"smiles": "C(S/C=C/c1ccc(-c2ccc(/C=C/SC=C3CCCC3)cc2)cc1)=C1CCCC1", "values": [
      {"measurement": "photoluminescence quantum yield", "setting": "in ClCCl", "value": 0.182}
    ]},
    {"smiles": "CN(C)c1ccc(C#Cc2ccc3c(N(C)C)cc(-c4ccccc4)cc3c2)cc1", "values": [
      {"measurement": "photoluminescence quantum yield", "setting": "in ClCCl", "value": 0.76}
    ]},
    {"smiles": "CCCCCCN1C(=O)c2cccc3c(-c4ccc([N+](=O)[O-])s4)ccc(c23)C1=O", "values": [
      {"measurement": "photoluminescence quantum yield", "setting": "in ClC(Cl)Cl", "value": 0}
    ]},
    {"smiles": "CCC12C(=C3C(=C4c5ccc(-c6ccc(C)s6)cc5S(=O)(=O)C41CC)C(F)(F)C(F)(F)C3(F)F)c1ccc(-c3ccc(C)s3)cc1S2(=O)=O", "note": "(configuration not stated)", "values": [
      {"measurement": "photoluminescence quantum yield", "setting": "in C1COCCO1", "value": 0.78},
      {"measurement": "photoluminescence quantum yield", "setting": "in CC#N", "value": 0.67},
      {"measurement": "photoluminescence quantum yield", "setting": "in CCCCCC", "value": 0.72},
      {"measurement": "photoluminescence quantum yield", "setting": "in CCO", "value": 0.62}
    ]},
    {"smiles": "O=S(=O)(c1cccc(N2c3ccccc3Sc3ccccc32)c1)c1cccc(N2c3ccccc3Sc3ccccc32)c1", "values": [
      {"measurement": "photoluminescence quantum yield", "setting": "[1]", "value": 0.082},
      {"measurement": "photoluminescence quantum yield", "setting": "[2]", "value": 0.116}
    ]},
    {"smiles": "CCOc1cccc2c1O[B-](F)(F)[n+]1c3c(c4c(c1-2)-c1ccccc1CC4)-c1ccccc1CC3", "values": [
      {"measurement": "photoluminescence quantum yield", "setting": "in ClCCl", "value": 0.16}
    ]},
    {"smiles": "CCCCCCN1C(=O)c2cccc3c(-c4ccc(-c5cc(-c6ccc(C)cc6)n(-c6ccccc6)n5)s4)ccc(c23)C1=O", "values": [
      {"measurement": "photoluminescence quantum yield", "setting": "in ClCCl", "value": 0.36}
    ]},
    {"smiles": "CCOC(=O)c1sc2nc3c(c(C#N)c2c1N)CCCCCC3", "values": [
      {"measurement": "photoluminescence quantum yield", "setting": "in c1ccccc1", "value": 0.063}
    ]},
    {"smiles": "CCn1c2ccccc2c2cc3c(cc21)c1ccccc1n3CC", "values": [
      {"measurement": "photoluminescence quantum yield", "setting": "in ClC(Cl)Cl", "value": 0.13}
    ]},
    {"smiles": "CCOC(=O)C1=C(C(=O)OCC)C2(c3ccccc3-c3ccccc32)[C@@H](c2ccc([N+](=O)[O-])cc2)C=C2c3cc(OC)c(OC)cc3CCN21", "values": [
      {"measurement": "photoluminescence quantum yield", "setting": "in ClCCl", "value": 0.00075}
    ]},
    {"smiles": "N#C/C(=C\\c1ccc(C#N)cc1)c1nc(-c2ccccc2)c(-c2ccccc2)s1", "values": [
      {"measurement": "photoluminescence quantum yield", "setting": "in CC#N", "value": 0.101}
    ]},
    {"smiles": "CB1C=Cc2ccc3ccccc3c2N1c1ccccc1", "values": [
      {"measurement": "photoluminescence quantum yield", "setting": "in C1CCCCC1", "value": 0.04}
    ]},
    {"smiles": "Oc1ccccc1", "values": [
      {"measurement": "photoluminescence quantum yield", "setting": "in C1CCCCC1", "value": 0.09}
    ]},
    {"smiles": "CCN(CC)c1ccc2c(c1)oc(=O)c1c(=O)oc3cc(C#Cc4ccc(N(C)C)cc4)ccc3c12", "values": [
      {"measurement": "photoluminescence quantum yield", "setting": "in ClCCl", "value": 0.04}
    ]},
    {"smiles": "CCOC(=O)C1=C(C)NC2=C(C(=O)c3ccccc32)C1c1ccc(N(C)C)cc1", "note": "(configuration not stated)", "values": [
      {"measurement": "photoluminescence quantum yield", "setting": "in C1CCOC1", "value": 0.34},
      {"measurement": "photoluminescence quantum yield", "setting": "in C1COCCO1", "value": 0.43},
      {"measurement": "photoluminescence quantum yield", "setting": "in CC#N", "value": 0.3},
      {"measurement": "photoluminescence quantum yield", "setting": "in CCO", "value": 0.092},
      {"measurement": "photoluminescence quantum yield", "setting": "in CN(C)C=O", "value": 0.33},
      {"measurement": "photoluminescence quantum yield", "setting": "in CO", "value": 0.035},
      {"measurement": "photoluminescence quantum yield", "setting": "in CS(C)=O", "value": 0.29},
      {"measurement": "photoluminescence quantum yield", "setting": "in ClC(Cl)(Cl)Cl", "value": 0.16},
      {"measurement": "photoluminescence quantum yield", "setting": "in ClC(Cl)Cl", "value": 0.44},
      {"measurement": "photoluminescence quantum yield", "setting": "in ClCCl", "value": 0.4}
    ]},
    {"smiles": "CCCCCCOc1ccc2ccc3oc(=O)cc4cc(OCCCCCC)c1c2c43", "values": [
      {"measurement": "photoluminescence quantum yield", "setting": "in CC1CCCO1", "value": 0.83}
    ]},
    {"smiles": "COC(=O)c1cccc2c1C#Cc1c(N)cccc1OCCCO2", "values": [
      {"measurement": "photoluminescence quantum yield", "setting": "in CC#N", "value": 0.03},
      {"measurement": "photoluminescence quantum yield", "setting": "in ClCCl", "value": 0.14}
    ]},
    {"smiles": "N#Cc1nc(N(Cc2ccccc2Cl)Cc2ccccc2Cl)c(C#N)nc1N(Cc1ccccc1Cl)Cc1ccccc1Cl", "values": [
      {"measurement": "photoluminescence quantum yield", "setting": "in ClC(Cl)Cl", "value": 0.78}
    ]},
    {"smiles": "C[C@]12SC(=O)C=C1c1nc(-c3ccc(Cl)cc3Cl)[nH]c1C1=CC(=O)S[C@@]12C", "values": [
      {"measurement": "photoluminescence quantum yield", "setting": "in CC#N", "value": 0.11}
    ]},
    {"smiles": "CCCCCCC(CCCCCC)N1C(=O)c2cccc3c(-c4ccc(OC)cc4)ccc(c23)C1=O", "values": [
      {"measurement": "photoluminescence quantum yield", "setting": "in CCCCCC", "value": 0.65},
      {"measurement": "photoluminescence quantum yield", "setting": "in CCCCCCCCCCCCCC", "value": 0.79},
      {"measurement": "photoluminescence quantum yield", "setting": "in CCCCCCCCCCCO", "value": 0.83},
      {"measurement": "photoluminescence quantum yield", "setting": "in CCCCO", "value": 0.83},
      {"measurement": "photoluminescence quantum yield", "setting": "in CN(C)C=O", "value": 0.82},
      {"measurement": "photoluminescence quantum yield", "setting": "in Cc1ccccc1", "value": 0.75},
      {"measurement": "photoluminescence quantum yield", "setting": "in ClC(Cl)Cl", "value": 0.83}
    ]},
    {"smiles": "C1=CC2CC1C1C2[C@@]2(c3ccccc3)N=NC1(c1ccccc1)[C@@H]1C[C@H]12", "note": "(some centres not stated)", "values": [
      {"measurement": "photoluminescence quantum yield", "setting": "in CC#N", "value": 0.038}
    ]},
    {"smiles": "COc1ccc2c(c1)c1cc(OC)ccc1n2-c1nc2ccccc2nc1-n1c2ccc(OC)cc2c2cc(OC)ccc21", "values": [
      {"measurement": "photoluminescence quantum yield", "setting": "in Cc1ccccc1", "value": 0.13}
    ]},
    {"smiles": "O=c1oc2ccc3ccccc3c2nc1-c1ccc(Cl)cc1", "values": [
      {"measurement": "photoluminescence quantum yield", "setting": "in c1ccccc1", "value": 0.478}
    ]},
    {"smiles": "CCCCCCN(CCCCCC)c1ccc(C#Cc2ccc(-c3ccc(C#Cc4ccc(N(CCCCCC)CCCCCC)cc4)cc3)cc2)cc1", "values": [
      {"measurement": "photoluminescence quantum yield", "setting": "in Cc1ccccc1", "value": 0.87}
    ]},
    {"smiles": "COc1ccc(/C=C/C=C/C2=NC3C(=O)NC(N)=NC3N2[C@H]2C[C@H](O)[C@@H](CO)O2)cc1", "note": "(some centres not stated)", "values": [
      {"measurement": "photoluminescence quantum yield", "setting": "in C1COCCO1", "value": 0.71},
      {"measurement": "photoluminescence quantum yield", "setting": "in CC#N", "value": 0.68},
      {"measurement": "photoluminescence quantum yield", "setting": "in CO", "value": 0.56}
    ]},
    {"smiles": "c1ccc2c(-c3c4ccccc4c(-c4ccc(-c5ccc(-n6c7ccccc7c7ccccc76)cc5)cc4)c4ccccc34)cccc2c1", "values": [
      {"measurement": "photoluminescence quantum yield", "setting": "in ClCCl", "value": 0.7}
    ]},
    {"smiles": "O=c1c2ccccc2sc2ccccc12", "values": [
      {"measurement": "photoluminescence quantum yield", "setting": "in C1CCOC1", "value": 0.012},
      {"measurement": "photoluminescence quantum yield", "setting": "in C1COCCO1", "value": 0.015},
      {"measurement": "photoluminescence quantum yield", "setting": "in CC#N", "value": 0.066},
      {"measurement": "photoluminescence quantum yield", "setting": "in CC(C)=O", "value": 0.024},
      {"measurement": "photoluminescence quantum yield", "setting": "in CC(C)O", "value": 0.14},
      {"measurement": "photoluminescence quantum yield", "setting": "in CCCCOC(C)=O", "value": 0.0078},
      {"measurement": "photoluminescence quantum yield", "setting": "in CO", "value": 0.25},
      {"measurement": "photoluminescence quantum yield", "setting": "in OCCO", "value": 0.41},
      {"measurement": "photoluminescence quantum yield", "setting": "in c1ccccc1", "value": 0.012}
    ]}
  ]
}
